Test [1] concerns the target viral glycoproteins (H and F); CD150. Put plainly: beta-galactosidase complementation-based fusion assay, CD150 target cells. As to conditions: for IC90: read-out: CD150 IC90.
The target of test [2] is viral glycoproteins (H and F); Nectin-4 (Measles virus, UniProt Q786F3). Put plainly: beta-galactosidase complementation-based fusion assay, Nectin-4 target cells.
Test [3] deals with measles virus (MeV) fusion protein F, wild type, expressed on cells (measles virus) (UniProt Q786F3). Put plainly: cell-based or functional assay.
Where [4] appears, read: Nectin4 IC50, Table 3 (extended version).
Setting [5] is: IC50, Table 2 (salient peptides), Nectin-4 target cells.

Like-named read-outs stand apart in the source and are kept apart here. Numbered stars: 1 amine (or outer) side, 2 acyl side, 3 side chain; on linkers, the order of the positions; unused ones are H or OH. Bridge positions count the residues as written; N and C are the ends. Square brackets hold non-standard residues; d marks the D form. Peptide text beside a SMILES is read from it. I, II: the chains in the order shown. * marks the point of attachment. X1 = CC(C)CCC[C@@H](C)[C@H]1CC[C@H]2[C@@H]3CC=C4C[C@@H](OCCN(CCNC(=O)CCOCCOCCOCCOCCNC(=O)CCCN5C(=O)CC([*:1])C5=O)CCNC(=O)CCOCCOCCOCCOCCNC(=O)CCCN5C(=O)CC([*:2])C5=O)CC[C@]4(C)[C@H]3CC[C@]12C; Cbz = O=C(OCc1ccccc1)*

For orientation: IC50 means the concentration needed to halve the response being measured. Broadly, the IC90 is the concentration needed for an effect of 90%.

Turning to `CC(C)CCC[C@@H](C)[C@H]1CC[C@H]2[C@@H]3CC=C4C[C@@H](OCCN(CCNC(=O)CCOCCOCCOCCOCCNC(=O)CCCN5C(=O)CC(SC[C@H](NC(=O)CNC(=O)[C@H](Cc6ccccc6)NC(=O)[C@@H](Cc6ccccc6)NC(=O)OCc6ccccc6)C(=O)O)C5=O)CCNC(=O)CCOCCOCCOCCOCCNC(=O)CCCN5C(=O)CC(SC[C@H](NC(=O)CNC(=O)[C@H](Cc6ccccc6)NC(=O)[C@@H](Cc6ccccc6)NC(=O)OCc6ccccc6)C(=O)O)C5=O)CC[C@]4(C)[C@H]3CC[C@]12C` (stereo partly drawn) [[FIP-peg4]2-chol (no GSGSG)], the IC50 in test [1] was above 700 nM; in test [2] (setting [4]), above 1000 nM. The IC90 in test [1] and in test [2] (read-out: Nectin4 IC90) was above 1000 nM throughout.
Turning to `CC(C)CCC[C@@H](C)[C@H]1CC[C@H]2[C@@H]3CC=C4C[C@@H](OC(=O)CSC[C@H](NC(=O)CNC(=O)[C@H](Cc5ccccc5)NC(=O)[C@@H](Cc5ccccc5)NC(=O)OCc5ccccc5)C(=O)O)CC[C@]4(C)[C@H]3CC[C@]12C` [FIP-chol (no GSGSG)], the IC50 in test [1] and in test [2] (setting [4]) was above 1000 nM each time. The concentration for an effect of 90% (IC90) in test [1] and in test [2] (read-out: Nectin4 IC90) was above 1000 nM in each case.
As to `CC(C)CCC[C@@H](C)[C@H]1CC[C@H]2[C@@H]3CC=C4C[C@@H](OC(=O)CCOCCOCCOCCOCCOCCOCCOCCOCCOCCOCCOCCOCCOCCOCCOCCOCCOCCOCCOCCOCCOCCOCCOCCOCCNC(=O)CSC[C@H](NC(=O)CNC(=O)[C@H](Cc5ccccc5)NC(=O)[C@@H](Cc5ccccc5)NC(=O)OCc5ccccc5)C(=O)O)CC[C@]4(C)[C@H]3CC[C@]12C` [peg24 chol [FIP] (no GSGSG)], the results for the IC90 in test [1] and in test [2] (read-out: Nectin4 IC90) were 544 ± 34.8 nM and 568 ± 186 nM, respectively.
Turning to `CC(C)CCC[C@@H](C)[C@H]1CC[C@H]2[C@@H]3CC=C4C[C@@H](OCCN(CCNC(=O)CCOCCOCCOCCOCCNC(=O)CCCN5C(=O)CC(SC[C@H](NC(=O)CNC(=O)[C@H](CO)NC(=O)CNC(=O)[C@H](CO)NC(=O)CNC(=O)CNC(=O)[C@H](Cc6ccccc6)NC(=O)[C@@H](Cc6ccccc6)NC(=O)OCc6ccccc6)C(=O)O)C5=O)CCNC(=O)CCOCCOCCOCCOCCNC(=O)CCCN5C(=O)CC(SC[C@H](NC(=O)CNC(=O)[C@H](CO)NC(=O)CNC(=O)[C@H](CO)NC(=O)CNC(=O)CNC(=O)[C@H](Cc6ccccc6)NC(=O)[C@@H](Cc6ccccc6)NC(=O)OCc6ccccc6)C(=O)O)C5=O)CC[C@]4(C)[C@H]3CC[C@]12C` (stereo partly drawn) [[FIP-peg4]2-chol] (I: Cbz-[dF]FGGSGSGC-OH / II: Cbz-[dF]FGGSGSGC-OH; linker I:9-II:9 via X1), the results for the 50% inhibitory concentration (IC50) in test [1] and in test [2] (setting [5]) were 510 ± 360 nM and 452 ± 196 nM, respectively. The IC90 in test [1] worked out at 927 ± 359 nM; in test [2], 1845 ± 16 nM; in test [2] (read-out: Nectin4 IC90), 1845 ± 16 nM.
Consider `CC(C)CCC[C@@H](C)[C@H]1CC[C@H]2[C@@H]3CC=C4C[C@@H](OC(=O)CCOCCOCCOCCOCCNC(=O)CSC[C@H](NC(=O)CNC(=O)[C@H](Cc5ccccc5)NC(=O)[C@@H](Cc5ccccc5)NC(=O)OCc5ccccc5)C(=O)O)CC[C@]4(C)[C@H]3CC[C@]12C` [FIP-peg4-chol (no GSGSG)], for which the IC90 in test [1] was above 900 nM; in test [2] (read-out: Nectin4 IC90), above 1000 nM.
For the compound `CC[C@H](C)[C@H](NC(=O)[C@H](C)NC(=O)[C@H](CC(N)=O)NC(=O)CNC(=O)[C@H](CC(C)C)NC(=O)[C@H](CC(N)=O)NC(=O)[C@@H](NC(=O)CNC(=O)[C@@H](NC(=O)[C@H](CC(=O)O)NC(=O)[C@H](CC(C)C)NC(=O)[C@H](CCCNC(=N)N)NC(=O)[C@H](CCC(=O)O)NC(=O)[C@H](CC(C)C)NC(=O)[C@H](CO)NC(=O)[C@@H](NC(=O)[C@@H]1CCCN1C(=O)[C@@H]1CCCN1C(=O)CNC(=O)[C@H](CO)NC(=O)CNC(=O)[C@H](CO)NC(=O)CNC(=O)CNC(=O)[C@H](Cc1ccccc1)NC(=O)[C@@H](Cc1ccccc1)NC(=O)OCc1ccccc1)[C@@H](C)CC)C(C)C)[C@@H](C)O)C(=O)N[C@@H](C)C(=O)N[C@@H](CCCCN)C(=O)N[C@@H](CC(C)C)C(=O)N[C@@H](CCC(=O)O)C(=O)N[C@@H](CC(=O)O)C(=O)N[C@@H](C)C(=O)N[C@@H](CCCCN)C(=O)N[C@@H](CCC(=O)O)C(=O)N[C@@H](CC(C)C)C(=O)N[C@@H](CC(C)C)C(=O)N[C@@H](CCC(=O)O)C(=O)N[C@@H](CO)C(=O)N[C@@H](CO)C(=O)N[C@@H](CC(=O)O)C(=O)N[C@@H](CCC(N)=O)C(=O)N[C@H](C(=O)N[C@@H](CC(C)C)C(=O)N[C@@H](CCCNC(=N)N)C(=O)N[C@@H](CSC1CC(=O)N(CCCC(=O)NCCOCCOCCOCCOCCC(=O)NCCN(CCNC(=O)CCOCCOCCOCCOCCNC(=O)CCCN2C(=O)CC(SC[C@H](NC(=O)[C@H](CCCNC(=N)N)NC(=O)[C@H](CC(C)C)NC(=O)[C@@H](NC(=O)[C@H](CCC(N)=O)NC(=O)[C@H](CC(=O)O)NC(=O)[C@H](CO)NC(=O)[C@H](CO)NC(=O)[C@H](CCC(=O)O)NC(=O)[C@H](CC(C)C)NC(=O)[C@H](CC(C)C)NC(=O)[C@H](CCC(=O)O)NC(=O)[C@H](CCCCN)NC(=O)[C@H](C)NC(=O)[C@H](CC(=O)O)NC(=O)[C@H](CCC(=O)O)NC(=O)[C@H](CC(C)C)NC(=O)[C@H](CCCCN)NC(=O)[C@H](C)NC(=O)[C@@H](NC(=O)[C@H](C)NC(=O)[C@H](CC(N)=O)NC(=O)CNC(=O)[C@H](CC(C)C)NC(=O)[C@H](CC(N)=O)NC(=O)[C@@H](NC(=O)CNC(=O)[C@@H](NC(=O)[C@H](CC(=O)O)NC(=O)[C@H](CC(C)C)NC(=O)[C@H](CCCNC(=N)N)NC(=O)[C@H](CCC(=O)O)NC(=O)[C@H](CC(C)C)NC(=O)[C@H](CO)NC(=O)[C@@H](NC(=O)[C@@H]3CCCN3C(=O)[C@@H]3CCCN3C(=O)CNC(=O)[C@H](CO)NC(=O)CNC(=O)[C@H](CO)NC(=O)CNC(=O)CNC(=O)[C@H](Cc3ccccc3)NC(=O)[C@@H](Cc3ccccc3)NC(=O)OCc3ccccc3)[C@@H](C)CC)C(C)C)[C@@H](C)O)[C@@H](C)CC)[C@@H](C)CC)C(=O)O)C2=O)CCO[C@H]2CC[C@@]3(C)C(=CC[C@H]4[C@@H]5CC[C@H]([C@H](C)CCCC(C)C)[C@@]5(C)CC[C@@H]43)C2)C1=O)C(=O)O)[C@@H](C)CC` (stereo partly drawn), the values for the IC50 in test [1] and in test [2] were 58.9 ± 69.8 nM and 60.2 ± 65.5 nM, respectively. Besides, the IC90 in test [1] worked out at 287 ± 24.5 nM; in test [2] (read-out: Nectin4 IC90), 220 ± 189 nM.
Turning to `O=C(CCN1C(=O)CC(SC[C@H](NC(=O)CNC(=O)[C@H](Cc2ccccc2)NC(=O)[C@@H](Cc2ccccc2)NC(=O)OCc2ccccc2)C(=O)O)C1=O)NCCOCCOCCOCCOCCOCCOCCOCCOCCOCCOCCOCCNC(=O)CCN1C(=O)CC(SC[C@H](NC(=O)CNC(=O)[C@H](Cc2ccccc2)NC(=O)[C@@H](Cc2ccccc2)NC(=O)OCc2ccccc2)C(=O)O)C1=O` (stereo partly drawn) [[FIP]2-peg11 (no GSGSG)], the IC50 in test [1] was above 600 nM; in test [2] (setting [5]) it was above 10000 nM; in test [2] (setting [4]), above 700 nM. Further, the IC90 is above 1000 nM in test [1], above 10000 nM in test [2] and above 1000 nM in test [2] (read-out: Nectin4 IC90).
As for `CC[C@H](C)[C@H](NC(=O)[C@H](C)NC(=O)[C@H](CC(N)=O)NC(=O)CNC(=O)[C@H](CC(C)C)NC(=O)[C@H](CC(N)=O)NC(=O)[C@@H](NC(=O)CNC(=O)[C@@H](NC(=O)[C@H](CC(=O)O)NC(=O)[C@H](CC(C)C)NC(=O)[C@H](CCCNC(=N)N)NC(=O)[C@H](CCC(=O)O)NC(=O)[C@H](CC(C)C)NC(=O)[C@H](CO)NC(=O)[C@@H](NC(=O)[C@@H]1CCCN1C(=O)[C@@H]1CCCN1C(=O)CNC(=O)[C@H](CO)NC(=O)CNC(=O)[C@H](CO)NC(=O)CNC(=O)CNC(=O)[C@H](Cc1ccccc1)NC(=O)[C@@H](Cc1ccccc1)NC(=O)OCc1ccccc1)[C@@H](C)CC)C(C)C)[C@@H](C)O)C(=O)N[C@@H](C)C(=O)N[C@@H](CCCCN)C(=O)N[C@@H](CC(C)C)C(=O)N[C@@H](CCC(=O)O)C(=O)N[C@@H](CC(=O)O)C(=O)N[C@@H](C)C(=O)N[C@@H](CCCCN)C(=O)N[C@@H](CCC(=O)O)C(=O)N[C@@H](CC(C)C)C(=O)N[C@@H](CC(C)C)C(=O)N[C@@H](CCC(=O)O)C(=O)N[C@@H](CO)C(=O)N[C@@H](CO)C(=O)N[C@@H](CC(=O)O)C(=O)N[C@@H](CCC(N)=O)C(=O)N[C@H](C(=O)N[C@@H](CC(C)C)C(=O)N[C@@H](CCCNC(=N)N)C(=O)N[C@@H](CSC1CC(=O)N(CCC(=O)NCCOCCOCCOCCOCCOCCOCCOCCOCCOCCOCCOCCNC(=O)CCN2C(=O)CC(SC[C@H](NC(=O)[C@H](CCCNC(=N)N)NC(=O)[C@H](CC(C)C)NC(=O)[C@@H](NC(=O)[C@H](CCC(N)=O)NC(=O)[C@H](CC(=O)O)NC(=O)[C@H](CO)NC(=O)[C@H](CO)NC(=O)[C@H](CCC(=O)O)NC(=O)[C@H](CC(C)C)NC(=O)[C@H](CC(C)C)NC(=O)[C@H](CCC(=O)O)NC(=O)[C@H](CCCCN)NC(=O)[C@H](C)NC(=O)[C@H](CC(=O)O)NC(=O)[C@H](CCC(=O)O)NC(=O)[C@H](CC(C)C)NC(=O)[C@H](CCCCN)NC(=O)[C@H](C)NC(=O)[C@@H](NC(=O)[C@H](C)NC(=O)[C@H](CC(N)=O)NC(=O)CNC(=O)[C@H](CC(C)C)NC(=O)[C@H](CC(N)=O)NC(=O)[C@@H](NC(=O)CNC(=O)[C@@H](NC(=O)[C@H](CC(=O)O)NC(=O)[C@H](CC(C)C)NC(=O)[C@H](CCCNC(=N)N)NC(=O)[C@H](CCC(=O)O)NC(=O)[C@H](CC(C)C)NC(=O)[C@H](CO)NC(=O)[C@@H](NC(=O)[C@@H]3CCCN3C(=O)[C@@H]3CCCN3C(=O)CNC(=O)[C@H](CO)NC(=O)CNC(=O)[C@H](CO)NC(=O)CNC(=O)CNC(=O)[C@H](Cc3ccccc3)NC(=O)[C@@H](Cc3ccccc3)NC(=O)OCc3ccccc3)[C@@H](C)CC)C(C)C)[C@@H](C)O)[C@@H](C)CC)[C@@H](C)CC)C(=O)O)C2=O)C1=O)C(=O)O)[C@@H](C)CC` (stereo partly drawn) [[FIP-HRC450-485]2-peg11 (no GSGSG)], the IC90 in test [1] and in test [2] (read-out: Nectin4 IC90) was above 1000 nM each time.
For the compound “FIP-HRC450-485 (no GSGSG), Monomer N-Maleimide (peptide)”, in test [3], the IC50, beta-galactosidase complementation-based fusion assay, Nectin-4 target cells was above 700 nM and the IC90, beta-galactosidase complementation-based fusion assay, Nectin-4 target cells was above 10000 nM.
In the same order, the values of “FIP-HRC450-485, Monomer N-Maleimide (peptide)” are above 1000 nM and above 1000 nM.

(Values after patent US20230014151A1, “COMBINATION ANTIVIRAL THERAPY FOR MEASLES” (The Trustees of Columbia University in the City of New York, priority 2019, published 2023).)
